Calls of active or inactive are those of the source.
Experiments:
[1] = target: FAD-linked sulfhydryl oxidase ALR (Homo sapiens, UniProt P55789); test: inhibitors of human ALR sulfhydryl oxidase, dose response, biochemical, H2O2 detection, luminescence, cherry-pick (AID 493248)
Streptococcus = test: Group A Streptococcus viability loss, dose response, counter-screen for streptokinase expression inhibitor project, luminescence, BacTiterGlo (AID 1915); type: functional, organism-based;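 also: potency for reduction of bacterial viability or growth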
Streptokinase A = target: T1, Streptokinase A (Streptococcus pyogenes serotype M1, UniProt P10520); test: S. pyogenes streptokinase expression inhibitors, potency, dose response, plasminogen activation absorbance, OD405 (AID 1914); type: functional, Streptococcus pyogenes M1 GAS;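 also: secreted streptokinase activity via plasminogen activation per viability signal from cell pellet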
T1 sequence (P10520 whole entry): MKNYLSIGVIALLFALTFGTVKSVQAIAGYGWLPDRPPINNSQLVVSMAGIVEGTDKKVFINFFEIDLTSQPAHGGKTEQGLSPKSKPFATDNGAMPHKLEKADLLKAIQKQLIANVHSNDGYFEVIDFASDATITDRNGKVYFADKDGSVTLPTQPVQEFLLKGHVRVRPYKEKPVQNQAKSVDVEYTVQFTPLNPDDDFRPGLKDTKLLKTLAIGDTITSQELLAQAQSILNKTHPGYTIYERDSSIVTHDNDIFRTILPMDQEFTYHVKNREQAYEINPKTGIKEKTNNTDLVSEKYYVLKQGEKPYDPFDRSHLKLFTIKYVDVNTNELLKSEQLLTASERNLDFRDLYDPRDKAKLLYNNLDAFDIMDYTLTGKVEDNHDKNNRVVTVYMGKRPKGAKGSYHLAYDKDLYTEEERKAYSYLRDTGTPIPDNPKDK

[2] = target: T2, Rac GTPase-activating protein 1 (Homo sapiens, UniProt Q9H0H5); test: MgcRacGAP GTPase-activating activity inhibitors, confirmation, biochemical, ADP Hunter fluorescence, primary and confirmatory (AID 624330); type: functional
T2 sequence (Q9H0H5 whole entry): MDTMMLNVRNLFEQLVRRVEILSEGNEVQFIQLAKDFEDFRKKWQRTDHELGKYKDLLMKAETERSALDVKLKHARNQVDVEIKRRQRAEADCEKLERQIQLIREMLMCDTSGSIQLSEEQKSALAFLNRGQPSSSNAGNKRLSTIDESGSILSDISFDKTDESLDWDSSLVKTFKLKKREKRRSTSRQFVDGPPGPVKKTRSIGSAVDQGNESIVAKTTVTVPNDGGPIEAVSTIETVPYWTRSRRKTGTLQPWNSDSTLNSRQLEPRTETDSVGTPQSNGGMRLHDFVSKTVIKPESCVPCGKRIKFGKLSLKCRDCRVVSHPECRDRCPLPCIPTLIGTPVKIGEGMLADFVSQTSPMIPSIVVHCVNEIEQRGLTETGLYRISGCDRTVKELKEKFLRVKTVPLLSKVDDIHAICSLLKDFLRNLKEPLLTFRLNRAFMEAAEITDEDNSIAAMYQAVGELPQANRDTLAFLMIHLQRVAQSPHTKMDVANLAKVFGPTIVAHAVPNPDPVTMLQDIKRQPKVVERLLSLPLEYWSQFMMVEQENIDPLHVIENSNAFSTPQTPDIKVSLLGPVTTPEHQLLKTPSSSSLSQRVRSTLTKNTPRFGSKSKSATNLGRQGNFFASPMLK

[3] = tested on: Streptococcus sp. 'group A'; test: growth inhibition of control SK(-) GAS strain, dose response, counter-screen for streptokinase expression inhibitor project, luminescence, kanamycin, BacTiterGlo, confirmation (AID 1900); type: functional, organism-based
[4] = HeLa cell cytotoxicity, dose response, cytotoxicity control for MgcRacGAP inhibitor project (AID 624300); type: functional
[5] = target: Voltage-dependent T-type calcium channel subunit alpha-1H (Homo sapiens, UniProt O95180); type: functional;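 also: channel activity triggered by adding a high calcium stimulation buffer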
Cytochrome P450 3A4 = Cytochrome P450 3A4 (Homo sapiens, UniProt P08684); conditions: Potency;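 also: confirmatory qHTS run detecting inhibitors and substrates of CYP3A4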
cells = type: functional
[6] = THP-1 cell cytotoxicity, dose response, cytotoxicity control for non-replicating M. tuberculosis project (AID 489025); type: functional
[7] = target: T3, Sentrin-specific protease 8 (Homo sapiens, UniProt Q96LD8); type: functional;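 also: luminescence read-out of SENP8 inhibition, dose-response confirmation following an ultra-high-throughput screen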
T3 sequence (Q96LD8 whole entry): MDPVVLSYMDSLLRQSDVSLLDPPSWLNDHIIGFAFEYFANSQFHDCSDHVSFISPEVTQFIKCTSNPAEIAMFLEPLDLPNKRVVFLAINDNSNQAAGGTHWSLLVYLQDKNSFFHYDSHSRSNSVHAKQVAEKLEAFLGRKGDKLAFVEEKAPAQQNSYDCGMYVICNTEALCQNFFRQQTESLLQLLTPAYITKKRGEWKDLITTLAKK

[8] = target: T4, Sentrin-specific protease 6 (Homo sapiens, UniProt Q9GZR1); type: functional;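 also: Luminescence-based dose-response confirmatory assay of SENP6 inhibition, following up an ultra-high-throughput screen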
T4 sequence (Q9GZR1 whole entry): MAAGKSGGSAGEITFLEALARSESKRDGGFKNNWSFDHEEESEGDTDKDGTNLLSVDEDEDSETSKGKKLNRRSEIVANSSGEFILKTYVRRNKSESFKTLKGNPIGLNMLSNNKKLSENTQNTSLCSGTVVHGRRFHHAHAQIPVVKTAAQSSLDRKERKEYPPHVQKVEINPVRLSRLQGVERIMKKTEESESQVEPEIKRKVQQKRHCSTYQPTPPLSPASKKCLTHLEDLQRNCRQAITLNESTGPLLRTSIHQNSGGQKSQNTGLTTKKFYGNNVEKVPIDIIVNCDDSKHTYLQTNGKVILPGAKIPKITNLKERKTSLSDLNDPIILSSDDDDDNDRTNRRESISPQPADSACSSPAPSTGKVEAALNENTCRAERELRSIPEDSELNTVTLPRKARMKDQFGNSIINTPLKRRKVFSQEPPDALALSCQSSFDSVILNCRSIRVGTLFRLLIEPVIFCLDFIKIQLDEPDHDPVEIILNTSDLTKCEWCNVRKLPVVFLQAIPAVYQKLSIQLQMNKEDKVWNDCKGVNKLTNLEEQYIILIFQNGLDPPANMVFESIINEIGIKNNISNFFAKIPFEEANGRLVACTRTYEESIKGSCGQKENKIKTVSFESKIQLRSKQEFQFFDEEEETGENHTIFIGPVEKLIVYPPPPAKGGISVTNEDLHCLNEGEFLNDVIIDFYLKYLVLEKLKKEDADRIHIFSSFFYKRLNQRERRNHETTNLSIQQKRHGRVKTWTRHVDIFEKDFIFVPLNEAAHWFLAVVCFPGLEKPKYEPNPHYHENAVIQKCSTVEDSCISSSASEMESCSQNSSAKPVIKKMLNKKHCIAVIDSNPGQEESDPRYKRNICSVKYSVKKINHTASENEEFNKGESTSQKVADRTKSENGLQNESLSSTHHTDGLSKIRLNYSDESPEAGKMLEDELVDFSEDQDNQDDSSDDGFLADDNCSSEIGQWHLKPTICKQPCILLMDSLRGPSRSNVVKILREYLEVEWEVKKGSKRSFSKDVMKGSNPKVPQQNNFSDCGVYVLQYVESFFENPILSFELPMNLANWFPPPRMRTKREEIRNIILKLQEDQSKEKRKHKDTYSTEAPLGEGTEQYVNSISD

Caspase-3 = target: T5, Caspase-3 (Homo sapiens, UniProt P42574); type: functional;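 also: Dose-response selectivity test against caspase-3 for candidate inhibitors of sentrin-specific proteases (SENPs)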
T5 sequence (P42574 whole entry): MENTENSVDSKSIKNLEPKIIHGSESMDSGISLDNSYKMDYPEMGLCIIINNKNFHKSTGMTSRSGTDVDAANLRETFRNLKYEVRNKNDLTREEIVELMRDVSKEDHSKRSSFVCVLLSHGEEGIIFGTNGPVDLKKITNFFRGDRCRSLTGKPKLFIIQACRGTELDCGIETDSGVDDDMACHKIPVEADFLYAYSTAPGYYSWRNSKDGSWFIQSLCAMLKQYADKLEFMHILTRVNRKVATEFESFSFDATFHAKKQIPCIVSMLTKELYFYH

[9] = target: T6, Sentrin-specific protease 7 (Homo sapiens, UniProt Q9BQF6); type: functional;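 also: Luminescence-based dose-response confirmation of ultra-high-throughput screening hits, measuring inhibition of SENP7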
T6 sequence (Q9BQF6 whole entry): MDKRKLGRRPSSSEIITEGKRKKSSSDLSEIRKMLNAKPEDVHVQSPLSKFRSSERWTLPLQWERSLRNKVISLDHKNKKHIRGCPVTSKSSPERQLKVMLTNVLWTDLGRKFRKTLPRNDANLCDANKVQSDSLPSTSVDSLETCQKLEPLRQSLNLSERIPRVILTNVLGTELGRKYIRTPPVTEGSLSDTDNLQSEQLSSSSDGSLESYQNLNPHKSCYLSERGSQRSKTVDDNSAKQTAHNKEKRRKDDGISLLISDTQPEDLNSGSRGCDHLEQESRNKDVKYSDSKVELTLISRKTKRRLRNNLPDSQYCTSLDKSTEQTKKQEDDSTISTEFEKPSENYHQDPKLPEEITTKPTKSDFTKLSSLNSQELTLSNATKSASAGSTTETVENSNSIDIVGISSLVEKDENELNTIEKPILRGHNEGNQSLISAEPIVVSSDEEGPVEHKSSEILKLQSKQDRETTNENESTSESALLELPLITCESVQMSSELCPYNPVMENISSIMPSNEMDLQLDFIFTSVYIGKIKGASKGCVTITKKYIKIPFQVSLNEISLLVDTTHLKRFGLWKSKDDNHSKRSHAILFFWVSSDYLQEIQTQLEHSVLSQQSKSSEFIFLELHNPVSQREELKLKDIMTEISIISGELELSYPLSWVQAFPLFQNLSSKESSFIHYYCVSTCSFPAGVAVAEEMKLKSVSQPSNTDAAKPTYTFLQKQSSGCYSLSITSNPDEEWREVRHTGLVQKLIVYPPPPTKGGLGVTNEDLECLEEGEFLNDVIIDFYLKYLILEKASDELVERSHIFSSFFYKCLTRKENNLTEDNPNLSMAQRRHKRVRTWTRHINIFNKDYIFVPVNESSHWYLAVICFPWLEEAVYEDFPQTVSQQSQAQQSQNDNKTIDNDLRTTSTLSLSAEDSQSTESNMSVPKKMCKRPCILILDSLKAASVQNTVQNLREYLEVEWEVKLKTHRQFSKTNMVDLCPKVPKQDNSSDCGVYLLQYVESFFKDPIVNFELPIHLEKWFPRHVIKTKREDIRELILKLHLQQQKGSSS

INS1 = test: beta cell apoptosis inhibitors, cytokine rescue, dose response, luminescence, retest (AID 449756); type: functional, cell-based; conditions: Rattus norvegicus;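 also: cell death triggered by IL-1 beta plus TNF-alpha plus IFN-gamma mixture; protective hits raise ATP signal compared with cytokine alone wells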
[10] = A cytotoxicity screen of small molecule inhibitors of the PhoP region in Salmonella typhi identified in the primary screen. [Related pubchem assays: 1850, 1864, 1985 ]; type: functional
[11] = cytotoxicity toward NIH3T3 fibroblasts, dose response, counter-screen, cell-based, ATP luminescence, mouse fibroblasts (AID 2010); type: functional;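 also: cells exposed to compound for about 90 hours before reading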
[12] = inhibitors of intracellular T. cruzi replication, confirmation, NIH3T3 host cells, beta-gal luminescence (AID 2044); type: functional, cell-based;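 also: intracellular parasites grown in NIH/3T3 mouse fibroblasts as host cells; luminescent beta-galactosidase reporter signal from transgenic T. cruzi replicating inside host cells; inhibitors lower the luminescence signal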
[13] = C. albicans growth with fluconazole, confirmation, fluorescence, retest (AID 2467); type: functional, cell-based
[14] = NIH-3T3 fibroblast cytotoxicity, dose response, cytotoxicity control, cell-based, fluorescence, Alamar Blue, secondary assay (AID 2327); type: functional;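 also: NIH-3T3 mouse fibroblasts cultured with fluconazole at 8 µg/mL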

Chain of Cytochrome P450 3A4 (P08684 whole entry): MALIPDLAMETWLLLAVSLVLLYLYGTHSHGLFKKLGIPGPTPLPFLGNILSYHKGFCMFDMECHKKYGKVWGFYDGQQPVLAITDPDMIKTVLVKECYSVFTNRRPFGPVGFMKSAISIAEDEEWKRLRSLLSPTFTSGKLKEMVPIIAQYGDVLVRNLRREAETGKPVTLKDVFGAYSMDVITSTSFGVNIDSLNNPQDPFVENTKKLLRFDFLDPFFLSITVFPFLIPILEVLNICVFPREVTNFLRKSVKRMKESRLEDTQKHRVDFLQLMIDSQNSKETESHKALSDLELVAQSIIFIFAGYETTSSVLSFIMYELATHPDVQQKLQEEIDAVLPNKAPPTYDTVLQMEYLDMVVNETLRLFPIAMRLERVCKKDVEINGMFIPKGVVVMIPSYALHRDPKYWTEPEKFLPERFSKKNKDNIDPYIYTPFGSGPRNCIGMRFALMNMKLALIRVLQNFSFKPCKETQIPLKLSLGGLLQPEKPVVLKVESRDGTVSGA
Chain of Voltage-dependent T-type calcium channel subunit alpha-1H (O95180 whole entry): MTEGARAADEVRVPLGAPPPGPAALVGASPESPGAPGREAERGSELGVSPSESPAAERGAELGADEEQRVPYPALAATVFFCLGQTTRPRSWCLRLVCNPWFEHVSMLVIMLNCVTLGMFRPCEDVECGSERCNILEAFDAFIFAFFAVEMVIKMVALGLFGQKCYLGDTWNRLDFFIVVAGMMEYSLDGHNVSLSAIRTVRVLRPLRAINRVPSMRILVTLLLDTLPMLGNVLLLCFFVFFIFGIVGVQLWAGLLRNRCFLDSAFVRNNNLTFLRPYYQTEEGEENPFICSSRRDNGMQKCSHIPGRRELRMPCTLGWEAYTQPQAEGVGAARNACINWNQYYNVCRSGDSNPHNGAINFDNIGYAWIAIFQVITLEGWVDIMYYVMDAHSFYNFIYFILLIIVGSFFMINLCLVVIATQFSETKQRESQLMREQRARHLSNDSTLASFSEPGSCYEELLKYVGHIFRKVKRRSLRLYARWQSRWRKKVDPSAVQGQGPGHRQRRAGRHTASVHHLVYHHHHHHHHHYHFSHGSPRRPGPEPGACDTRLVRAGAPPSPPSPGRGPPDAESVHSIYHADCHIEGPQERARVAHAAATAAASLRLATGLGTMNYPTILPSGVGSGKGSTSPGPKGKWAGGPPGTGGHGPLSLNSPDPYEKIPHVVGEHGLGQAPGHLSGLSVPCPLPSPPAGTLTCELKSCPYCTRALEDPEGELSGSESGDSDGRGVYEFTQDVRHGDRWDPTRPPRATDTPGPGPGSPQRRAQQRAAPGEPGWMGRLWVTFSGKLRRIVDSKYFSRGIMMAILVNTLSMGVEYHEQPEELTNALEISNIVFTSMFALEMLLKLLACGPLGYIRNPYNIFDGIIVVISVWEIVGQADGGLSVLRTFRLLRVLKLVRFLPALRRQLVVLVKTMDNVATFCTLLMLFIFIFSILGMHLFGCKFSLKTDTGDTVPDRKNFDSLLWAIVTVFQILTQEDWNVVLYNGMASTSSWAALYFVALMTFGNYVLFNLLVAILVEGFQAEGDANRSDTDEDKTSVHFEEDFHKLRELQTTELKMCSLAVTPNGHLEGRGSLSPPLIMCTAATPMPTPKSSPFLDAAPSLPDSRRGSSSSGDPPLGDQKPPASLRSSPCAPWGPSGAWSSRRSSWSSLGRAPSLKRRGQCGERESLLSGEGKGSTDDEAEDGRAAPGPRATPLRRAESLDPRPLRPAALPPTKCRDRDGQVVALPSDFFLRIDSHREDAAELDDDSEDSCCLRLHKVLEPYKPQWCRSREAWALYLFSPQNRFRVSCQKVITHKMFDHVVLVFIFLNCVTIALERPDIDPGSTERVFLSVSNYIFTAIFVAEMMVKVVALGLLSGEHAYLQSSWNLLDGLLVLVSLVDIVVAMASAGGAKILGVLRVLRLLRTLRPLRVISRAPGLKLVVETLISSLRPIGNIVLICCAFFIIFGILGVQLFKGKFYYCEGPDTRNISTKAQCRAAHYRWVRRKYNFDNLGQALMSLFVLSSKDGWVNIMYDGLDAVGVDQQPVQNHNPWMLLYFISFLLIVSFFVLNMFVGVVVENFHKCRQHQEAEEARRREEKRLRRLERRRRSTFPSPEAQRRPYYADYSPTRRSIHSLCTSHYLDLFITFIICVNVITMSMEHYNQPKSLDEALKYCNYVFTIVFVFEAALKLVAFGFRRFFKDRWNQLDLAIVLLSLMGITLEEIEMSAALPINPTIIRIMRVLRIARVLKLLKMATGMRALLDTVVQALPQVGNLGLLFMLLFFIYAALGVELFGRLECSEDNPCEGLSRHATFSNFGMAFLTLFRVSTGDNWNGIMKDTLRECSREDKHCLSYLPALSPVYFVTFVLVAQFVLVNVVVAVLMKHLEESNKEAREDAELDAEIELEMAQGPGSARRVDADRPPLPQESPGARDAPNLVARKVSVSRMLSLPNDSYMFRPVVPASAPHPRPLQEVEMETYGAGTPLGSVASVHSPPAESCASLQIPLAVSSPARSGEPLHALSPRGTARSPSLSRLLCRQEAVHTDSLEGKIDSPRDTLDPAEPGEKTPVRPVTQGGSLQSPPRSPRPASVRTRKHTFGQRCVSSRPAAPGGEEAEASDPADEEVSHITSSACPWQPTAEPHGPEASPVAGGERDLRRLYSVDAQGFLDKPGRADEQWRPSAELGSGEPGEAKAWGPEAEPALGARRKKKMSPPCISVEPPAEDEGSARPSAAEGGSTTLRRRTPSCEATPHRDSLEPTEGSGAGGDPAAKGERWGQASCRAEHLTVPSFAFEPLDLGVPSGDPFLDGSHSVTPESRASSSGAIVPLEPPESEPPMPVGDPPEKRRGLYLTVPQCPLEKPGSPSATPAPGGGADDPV
Chain of FAD-linked sulfhydryl oxidase ALR (P55789 whole entry): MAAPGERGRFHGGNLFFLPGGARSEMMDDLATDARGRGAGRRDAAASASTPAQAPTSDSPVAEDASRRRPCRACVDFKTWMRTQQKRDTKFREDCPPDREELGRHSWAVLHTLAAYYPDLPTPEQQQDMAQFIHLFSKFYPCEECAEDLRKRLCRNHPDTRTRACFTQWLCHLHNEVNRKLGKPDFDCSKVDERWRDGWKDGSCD

## COc1cc(/C=N/NC(=O)c2cc(-c3c(C)nn(-c4ccccc4)c3C)[nH]n2)ccc1O
[1]
  AC50: 0.105 µM (active)
Streptococcus
  EC50: 4.37 µM (active)
Streptokinase A
  EC50: 43.9 µM (inconclusive)
[2]
  IC50: 39.1 µM (active)
[3]
  EC50: 4.04 µM (active)
[4]
  CC50: 90 µM (active)

## O=C(CSCc1nc2ccccc2[nH]1)N1CCN(c2cccc(Cl)c2)CC1
[5]
  EC50: 3.55 µM (active)

## COC1C=CC23c4cc5c(cc4CN(CC2O)C3C1)OCO5 (stereo unspecified)
Cytochrome P450 3A4
  AC50: 39.8 µM (inconclusive)

## Nc1ncnc(Oc2cccc3cccnc23)c1[N+](=O)[O-]
cells
  IC50: 10.8 µM (active)
[6]
  CC50: 39.5 µM (active)

## Cc1nc(CS(=O)(=O)c2ccc(Cl)cc2)cc(Sc2ccc(Cl)cc2)n1
[5]
  EC50: 4.35 µM (active)

## COc1cc(-c2cc(-c3ccc(O)cc3)nc(N)c2C#N)ccc1O
[2]
  IC50: 34.7 µM (active)
[4]
  CC50: 100 µM (active)

## CCO/C=C1/C(=O)N(c2ccc(OC)cc2)C(=O)c2ccccc21
[7]
  IC50: 11.6 µM (active)
[8]
  IC50: 8.55 µM (active)
Caspase-3
  IC50: 7.36 µM (active)
[9]
  IC50: 25.8 µM (active)

## Oc1ccc(C(c2nnnn2C2CCCC2)N2CCc3ccccc3C2)cc1 (stereo unspecified)
[5]
  EC50: 5.95 µM (active)

## COc1cccc2oc(-c3ccccc3)cc(=O)c12
Cytochrome P450 3A4
  AC50: 31.6 µM (inconclusive)

## COC(=O)c1ccc(C(/C=C/[C@@H](C)C(=O)N(C)C)NC(=O)OCc2ccccc2)cc1 (stereo partly specified)
Cytochrome P450 3A4
  AC50: 10 µM (inconclusive)

## COc1c2ccoc2nc2c(OC)c(OCC(O)C(C)(C)O)ccc12 (stereo unspecified) [EVOXINE]
Cytochrome P450 3A4
  AC50: 15.8 µM (inconclusive)

## c1ccc(Nc2ncnc3c2oc2ccccc23)cc1
[7]
  IC50: > 100 µM (inactive)
[8]
  IC50: > 100 µM (inactive)
Caspase-3
  IC50: 31.3 µM (active)
[9]
  IC50: 11.9 µM (active)

## CC(C)(C)n1nnnc1C(c1ccc(F)cc1)N(Cc1ccc(F)cc1)Cc1ccco1 (stereo unspecified)
[5]
  EC50: 2.6 µM (active)
INS1
  AC50: 8.41 µM (active)

## Cc1ccc(CC(=O)Nc2ncc([N+](=O)[O-])s2)cc1
[10]
  EC50: > 50 µM (active)
[11]
  EC50: > 30 µM (not active)
[12]
  EC50: 0.687 µM (active)
[13]
  EC50: 0.033 µM (active)
[14]
  EC50: 37.3 µM (active)

## COC(=O)c1c(C)cc(O)cc1O [METHYL ORSELLINATE]
Cytochrome P450 3A4
  AC50: 12.6 µM (inconclusive)

## CC1(C)CC[C@]2(C(=O)O)CC[C@@]3(C)C(=CCC4[C@@]5(C)CCC(O)[C@@](C)(CO)C5CC[C@@]43C)C2C1 (stereo partly specified)
Cytochrome P450 3A4
  AC50: 12.6 µM (inconclusive)

## O=C(NCCCN1CCOCC1)c1c(O)nc2c(Br)cc(Br)cc2c1O
cells
  IC50: 1.04 µM (active)
[6]
  CC50: > 40 µM (active)

— ChEMBL document CHEMBL1201862, “PubChem BioAssay data set” (2004)
